Marks after values point to notes of the source that are not given here.
Legend:
[1] = Thermal stability of compounds at 60° C. (HPLC content of raw material and 2% premix); type: physicochemical; conditions: for Detection result of the content of test sample (%) Day 5: Day 5, relative to Day 0; for Detection result of the content of test sample (%) Day 10: Day 10, relative to Day 0
Protocol: The variations of the contents of the main ingredient of the aspartic acid derivative raw material and the main ingredient of a premix containing 2% mass fraction of the aspartic acid derivative (hereinafter referred to as 2% premix) over time were investigated under the conditions of stability test at 60° C.
Experimental apparatus: drug stability incubator, Waters high-performance liquid chromatograph (HPLC), etc.
Test samples: N-carbamoyl-DL-aspartic acid (compound 1), diethyl N-carbamoyl-DL-aspartate (compound 2), Sodium N-carbamoyl-DL-aspartate (compound 3), Calcium N-carbamoyl-DL-aspartate (compound 4), Zinc N-carbamoyl-DL-aspartate (compound 5), Copper N-carbamoyl-DL-aspartate (compound 6), Iron N-carbamoyl-DL-aspartate (compound 7), N-glycyl-DL-aspartic acid (compound 8), N-(4-aminobutyryl)-DL-aspartic acid (compound 9), N-(10-aminodecanoyl)-DL-aspartic acid (compound 10), N-(14-aminomyristoyl)-DL-aspartic acid (compound 11).
Preparation of standard solution: 50 mg of the test sample raw material was ultrasonically dissolved in 50 mL of water to obtain a working reserve solution. An appropriate amount of the working reserve solution was taken and diluted with water respectively to concentrations of 125 ppm, 250 ppm, 500 ppm, and 1000 ppm for HPLC testing. It was checked whether the sample concentrations are in a linear relationship with the peak area response values in HPLC, and a standard curve was established.
Preparation of test solution: An appropriate amount of the test sample raw material and an appropriate amount of a premix containing 2% mass fraction of the test sample (hereinafter referred to as 2% premix) were separately ultrasonically dissolved in an appropriate amount of water to form a 1000 ppm solution, which is filtered through a 0.22 µm filter membrane and then analyzed by HPLC.
HPLC analysis conditions: chromatographic column: Waters C18 column (250 mm×4.6 mm, 5 μm); mobile phase: 0.05% phosphoric acid:methanol=95:5 (v:v) (raw material); 0.05% phosphoric acid: methanol (gradient elution); methanol: 5%→40% (0-15 min) curve 6, 40%→5% (15-16 min) curve 1, 5% (16-23 min) curve 1, (premix, feed); detection wavelength: 210 nm; column temperature: 25° C.; sample size: 20 μL; flow rate: 1 mL/min.
Test method: The test sample raw material and its 2% premix were placed in a culture plate, spread into a thin layer of <5 mm, and placed at 60° C. Samples were taken on the day 5 and ? day 10 for HPLC detection. Each sample was sampled three times in parallel.

weaned piglets = assay: Breeding test: production performance of weaned piglets; type: in vivo, Duroc×Landrace×Yorkshire cross-bred weaned piglets; conditions: weaned piglets, 1000 ppm metal ion salt in basal daily ration, 40 days
Text: From 95 litters of 28±2 days old Duroc×Landrace×Yorkshire cross-bred weaned piglets, 360 clinically healthy piglets with similar body weights were selected as test pigs, which were randomly divided into 12 groups, with 3 replications per group and 10 pigs (half of male and female) per replication. The piglets were attracted to the food trough at the age of 7 days, and the hog house for 28-day-old weaned pigs has a cement floor, steel fence, good ventilation, and suitable temperature. The pigpens and utensils were sterilized before the test.
During the test period, the test pigs were free-stall housed in the same pigpen under the same feeding and management conditions, and were free to drink water and eat feed. The hog house was cleaned once a day, and the floor is washed once every three days to maintain clean and hygienic conditions. The test pigs were fed three times a day. The test groups include control and test groups. Group I is the control group, in which only the basal daily ration was fed to the piglets. […] 1000 ppm of a the aspartic acid derivative metal ion salt was added into the basal daily ration for the piglets in the groups VIII-XII, as shown in Table 2. No other antioxidant ingredients or growth promoters were added for the test groups during the entire feeding process. The test period was 40 days.
The test pigs were weighed during 7:00 to 9:00 in the morning of Day 0 and Day 40 after the start of the test. During the test period, the feed intake and health status of the piglets were observed every day, the remaining daily ration was weighed, the feed consumption was recorded, and the average daily feed intake (ADFI, g/d*each pig), the average daily gain (ADG, g/d*each pig), and the feed conversion ratio (FCR) were calculated. Calculation formulas are as follows: […]
The test data was statistically analyzed using SPSS18 software. First, a one-way analysis of variance (ANOVA) was performed on the data. If the difference between treatments is significant, Duncan's method was used for multiple comparisons, and the significance level was 0.05.

NC(=O)NC(CC(=O)[O-])C(=O)[O-].[Na+].[Na+] (racemic) [Compound 3, Sodium N-carbamoyl-DL-aspartate]
Detection result of the content of test sample (%) Day 5 ([1]; 2% premix): 99.33% | Detection result of the content of test sample (%) Day 10 ([1]; 2% premix): 99.21% | Detection result of the content of test sample (%) Day 5 ([1]; Raw material): 103.02% | Detection result of the content of test sample (%) Day 10 ([1]; Raw material): 103.53% | ADFI (g/d*each pig) (weaned piglets): 388 ± 11^bc g/d*each pig | ADG (g/d*each pig) (weaned piglets): 182 ± 2^d g/d*each pig | FCR (weaned piglets): 2.13 ± 0.04

NC(=O)NC(CC(=O)[O-])C(=O)[O-].[Ca+2] (racemic) [Compound 4, Calcium N-carbamoyl-DL-aspartate]
Detection result of the content of test sample (%) Day 5 ([1]; 2% premix): 98.93% | Detection result of the content of test sample (%) Day 10 ([1]; 2% premix): 97.99% | Detection result of the content of test sample (%) Day 5 ([1]; Raw material): 101.54% | Detection result of the content of test sample (%) Day 10 ([1]; Raw material): 101.87% | ADFI (g/d*each pig) (weaned piglets): 333 ± 8^a g/d*each pig | ADG (g/d*each pig) (weaned piglets): 157 ± 0^c g/d*each pig | FCR (weaned piglets): 2.13 ± 0.05

NC(=O)NC(CC(=O)[O-])C(=O)[O-].[Zn+2] (racemic) [Compound 5, Zinc N-carbamoyl-DL-aspartate]
Detection result of the content of test sample (%) Day 5 ([1]; 2% premix): 96.89% | Detection result of the content of test sample (%) Day 10 ([1]; 2% premix): 96.36% | Detection result of the content of test sample (%) Day 5 ([1]; Raw material): 99.76% | Detection result of the content of test sample (%) Day 10 ([1]; Raw material): 98.47% | ADFI (g/d*each pig) (weaned piglets): 418 ± 19^c g/d*each pig | ADG (g/d*each pig) (weaned piglets): 198 ± 3^6 g/d*each pig | FCR (weaned piglets): 2.11 ± 0.07

NC(=O)NC(CC(=O)[O-])C(=O)[O-].[Cu+2] (racemic) [Compound 6, Copper N-carbamoyl-DL-aspartate]
Detection result of the content of test sample (%) Day 5 ([1]; 2% premix): 98.28% | Detection result of the content of test sample (%) Day 10 ([1]; 2% premix): 97.94% | Detection result of the content of test sample (%) Day 5 ([1]; Raw material): 99.91% | Detection result of the content of test sample (%) Day 10 ([1]; Raw material): 98.31% | ADFI (g/d*each pig) (weaned piglets): 329 ± 13^a g/d*each pig | ADG (g/d*each pig) (weaned piglets): 156 ± 1^c g/d*each pig | FCR (weaned piglets): 2.11 ± 0.07

NC(=O)NC(CC(=O)[O-])C(=O)[O-].[Fe+2] (racemic) [Compound 7, Iron N-carbamoyl-DL-aspartate]
Detection result of the content of test sample (%) Day 5 ([1]; 2% premix): 96.74% | Detection result of the content of test sample (%) Day 10 ([1]; 2% premix): 94.98% | Detection result of the content of test sample (%) Day 5 ([1]; Raw material): 97.63% | Detection result of the content of test sample (%) Day 10 ([1]; Raw material): 96.01% | ADFI (g/d*each pig) (weaned piglets): 330 ± 11^a g/d*each pig | ADG (g/d*each pig) (weaned piglets): 153 ± 1^bc g/d*each pig | FCR (weaned piglets): 2.15 ± 0.06

Source: patent US12478081B2, “Application of aspartic acid derivative in preparing animal feed additive” (ANIPHA TECHNOLOGIES PTY LTD, priority 2018, dated 2025)
